The source of these data is patent publication US20240092768A1, “CRYSTAL FORM OF ANTI-INFLUENZA VIRUS COMPOUND, PREPARATION METHOD FOR CRYSTAL FORM, AND USE OF CRYSTAL FORM” (XIZANG HAISCO PHARMACEUTICAL CO., LTD., priority 2021, published 2024).

Molecules are shown by their SMILES.

In one series the test system is IFVA/Mal/302/54. Kind of series: cytopathic effect (CPE) antiviral assay in MDCK cells, IFVA/Mal/302/54. In kind it is cell-based, influenza viruses. Conditions: 120 h, CPE method, 5 days, CCK-8 cell viability. On the technique in general: Protection from cytopathic effect is a common read-out in antiviral testing.
Series [1] is described as follows: hygroscopicity experiment, dynamic vapor sorption (DVS). In kind it is physicochemical. Conditions: 25° C.
In a further series the test system is IFV A/PR/8/34. Kind of series: cytopathic effect (CPE) antiviral assay in MDCK cells, IFV A/PR/8/34. In kind it is cell-based, influenza viruses. Conditions: 120 h, CPE method, 5 days, CCK-8 cell viability.
The subject of a further series is IFVA/Weiss/43. Kind of series: cytopathic effect (CPE) antiviral assay in MDCK cells, IFVA/Weiss/43. Format: cell-based, influenza viruses. Conditions: 120 h, CPE method, 5 days, CCK-8 cell viability.
The nature of series [2]: experiment of crystal form transformation in water. In kind it is physicochemical. Conditions: room temperature, stirring of magma for 7 days, XRPD.

As usually defined, the EC50 is the midpoint of the concentration-response curve. For the molecule `Cc1nnn([C@@H](c2ccccc2)C2CCN(C(=O)c3cc(-c4nc5cc(NC(=O)[C@@H]6C[C@@H]6F)ccc5o4)ccn3)CC2)n1` [Compound A, (1S,2S)-2-fluoro-N-(2-(2-(4-((R)-(5-methyl-2H-tetrazol-2-yl)(phenyl)methyl)piperidine-1-carbonyl)pyridin-4-yl)benzo[d]oxazol-5-yl)cyclopropane-1-carboxamide], the EC50 came to 14 nM in the series on IFVA/Mal/302/54, 12 nM in the series on IFV A/PR/8/34 and 3 nM with IFVA/Weiss/43. Besides, the “weight change in a range of 0% RH to 80% RH” value in series [1] (listed as amorphous form of the compound A) is reported as “approximately 3.8%”.

Turning to `Cc1nnn([C@@H](c2ccccc2)C2CCN(C(=O)c3cc(-c4nc5cc(NC(=O)[C@@H]6C[C@@H]6F)ccc5o4)ccn3)CC2)n1` [crystal form I, (1S,2S)-2-fluoro-N-(2-(2-(4-((R)-(5-methyl-2H-tetrazol-2-yl)(phenyl)methyl)piperidine-1-carbonyl)pyridin-4-yl)benzo[d]oxazol-5-yl)cyclopropane-1-carboxamide], the “weight change in a range of 0% RH to 80% RH” value in series [1] was “approximately 0.3%”. The “crystal form after stirring of magma in water” value in series [2] is recorded as “remained unchanged after the magma”.
